Measured values as given in PMC9844085, “Bioinformatics-Structural Approach to the Search for New D-Amino Acid Oxidases” (Acta Naturae, 2022).

Target: T1, NhyDAAO (Natronosporangium hydrolyticum, UniProt A0A895YFV4)
T1 construct: gene JQS43_10680; recombinant, gene cloned, expression in E. coli in progress
T1 sequence (A0A895YFV4 1-316): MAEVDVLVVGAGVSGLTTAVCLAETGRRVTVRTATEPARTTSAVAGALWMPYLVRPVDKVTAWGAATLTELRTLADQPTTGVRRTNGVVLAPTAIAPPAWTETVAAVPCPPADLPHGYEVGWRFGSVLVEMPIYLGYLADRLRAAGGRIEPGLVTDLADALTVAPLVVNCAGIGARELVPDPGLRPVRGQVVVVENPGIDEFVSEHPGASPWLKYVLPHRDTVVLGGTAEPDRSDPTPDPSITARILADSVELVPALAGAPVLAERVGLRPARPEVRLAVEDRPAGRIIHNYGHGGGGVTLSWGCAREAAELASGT
Experiment: D-amino acid oxidase activity, preliminary experiments, method not given
Type: cell-based
Conditions: conditions and enzyme purity not told; named among the best substrates

Structure (SMILES)	D-amino acid oxidase activity, preliminary experiments, method not given
CC(C)C[C@@H](N)C(=O)O [D-Leu]	Preliminary experiments confirmed that D-Leu and D-Phe are the best substrates for NhyDAAO
N[C@H](Cc1ccccc1)C(=O)O [D-Phe]	Preliminary experiments confirmed that D-Leu and D-Phe are the best substrates for NhyDAAO
